Measured values as given in patent publication US12240857B2 (priority 2017, dated 2025).

What was measured:
[1] = system: EBOV mucin-domain-deleted glycoprotein pseudotyped VSV; assay: microbe, parasite or virus in culture; type: cell-based, Zaire ebolavirus; conditions: Zaire ebolavirus, Vero, read-out: EC50 EBOV
[2] = system: BDBV mucin-domain-deleted glycoprotein pseudotyped VSV; assay: microbe, parasite or virus in culture; type: cell-based, Bundibugyo ebolavirus; conditions: Vesicular stomatitis virus, Vero, read-out: EC50 BDBV
in vitro = conditions: African green monkey, CC50

SMILES | EC50 [1] | EC50 [2] | CC50 (in vitro)
COc1ccc(C23CC4CC(CC(C(=O)NC5CCNCC5)(C4)C2)C3)cc1 [Example A67] | 0.39 µM | 0.41 µM | > 10 µM
O=C(NC1CCNCC1)C12CC3CC(C1)CC(c1ccc(Cl)cc1)(C3)C2 [Example A69] | 0.22 µM | 0.24 µM | 22.4 µM
O=C(CC12CC3CC(C1)CC(c1ccccc1)(C3)C2)NC1CCNCC1 [Example A70] | 0.49 µM | 0.19 µM | > 50 µM
CC12CC3CC(C(=O)NC4CNC4)(C1)CC(c1ccccc1)(C3)C2 (stereo not drawn) [Example A72] | 0.28 µM | 0.29 µM | 17.4 µM
CC12CC3(C)CC(C(=O)NC4CCNCC4)(C1)CC(c1ccccc1)(C2)C3 [Example A73] | 0.32 µM | 0.37 µM | 13 µM
O=C(NC1CCNCC1)C12CC3CC(C1)CC(c1ccc(O)cc1)(C3)C2 [Example A74] | 1.72 µM | > 1 µM | 14 µM
O=C(NC1CCNCC1)C12CC3CC(C1)CC(c1ccc(F)cc1)(C3)C2 [Example A75] | 0.3 µM | 0.3 µM | 17.7 µM
CC12CC3CC(C(=O)N[C@H]4CC[C@@H](N)CC4)(C1)CC(c1ccccc1)(C3)C2 (stereo partly drawn) [Example A77] | 0.12 µM | 0.22 µM | 8.7 µM
CC12CC3CC(C(=O)NCCN)(C1)CC(c1ccccc1)(C3)C2 (stereo not drawn) [Example A79] | 0.26 µM | 0.29 µM | 4.2 µM
C[C@H]1CN(C(=O)C23CC4CC(C)(C2)CC(c2ccccc2)(C4)C3)CCN1 (stereo partly drawn) [Example A82] | 0.13 µM | 0.16 µM | 4.5 µM
C[C@H]1CNCCN1C(=O)C12CC3CC(C)(C1)CC(c1ccccc1)(C3)C2 (stereo partly drawn) [Example A83] | 0.1 µM | 0.18 µM | 12.9 µM
N[C@H]1CC[C@H](NC(=O)C2C3CC4CC2CC(c2ccccc2)(C4)C3)CC1 (stereo partly drawn) [Example A84] | 0.146 µM | 0.11 µM | 9 µM
C[C@@H]1CN(C(=O)C23CC4CC(C)(C2)CC(c2ccccc2)(C4)C3)C[C@H](C)N1 (stereo partly drawn) [Example A86] | 0.155 µM | 0.18 µM | 3.9 µM
N[C@H]1CC[C@H](NC(=O)C23CC4CC2CC(c2ccccc2)(C4)C3)CC1 (stereo partly drawn) [Example A87] | 0.14 µM | 0.19 µM | 1.4 µM
O=C(NC1CCNCC1)C12CC3CC1CC(c1ccccc1)(C3)C2 (stereo not drawn) [Example A88] | 0.36 µM | 0.5 µM | 12.5 µM
CC12CC3CC(C(=O)NC4CC5(CNC5)C4)(C1)CC(c1ccccc1)(C3)C2 (stereo not drawn) [Example A89] | 0.25 µM | 0.88 µM | 40.7 µM
CC12CC3CC(C(=O)NC4CC5(CC(N)C5)C4)(C1)CC(c1ccccc1)(C3)C2 (stereo not drawn) [Example A90] | 0.05 µM | 0.2 µM | 59 µM
CC12CC3CC(C(=O)N4CC5(CC(N)C5)C4)(C1)CC(c1ccccc1)(C3)C2 (stereo not drawn) [Example A91] | 0.12 µM | 0.19 µM | 17.4 µM
CC12CC3CC(C(=O)NC4C[C@H]5CC[C@H](C4)N5)(C1)CC(c1ccccc1)(C3)C2 (stereo partly drawn) [Example A92] | 0.19 µM | 0.7 µM | 10.8 µM
CC12CC3CC(C(=O)N4C5CCC4CC(N)C5)(C1)CC(c1ccccc1)(C3)C2 (stereo not drawn) [Example A93] | 0.21 µM | 0.36 µM | 12.2 µM
N[C@H]1CC[C@H](NC(=O)C23CC4CC(C2)CC(C(F)(F)F)(C4)C3)CC1 [Example A94] | 1 µM | 0.88 µM | 5.1 µM
CC12CC3CC(C(=O)NCC4CCNCC4)(C1)CC(c1ccccc1)(C3)C2 (stereo not drawn) [Example A95] | 0.49 µM | 0.97 µM | 23.1 µM
CC12CC3CC(C(=O)N[C@H]4CC[C@H](CN)CC4)(C1)CC(c1ccccc1)(C3)C2 (stereo partly drawn) [Example A96] | 0.03 µM | 0.08 µM | 11.6 µM
N[C@H]1CC[C@H](NC(=O)CC2(c3ccccc3)C3CC4CC(C3)CC2C4)CC1 (stereo partly drawn) [Example A97] | 0.34 µM | 0.25 µM | 100 µM
N[C@H]1CC[C@@H](NC(=O)CC2(c3ccccc3)C3CC4CC(C3)CC2C4)CC1 (stereo partly drawn) [Example A98] | 1.16 µM | 0.58 µM | 11.3 µM
O=C(CC1(c2ccccc2)C2CC3CC(C2)CC1C3)NC1CCNCC1 (stereo not drawn) [Example A99] | 0.69 µM | 0.19 µM | 26.7 µM

SMILES | EC50 [1] | EC50 [2] | CC50 (in vitro)
Cc1cccc(C23CC4CC(CC(C(=O)N[C@H]5CC[C@H](N)CC5)(C4)C2)C3)c1 [Example A100] | 0.22 µM | 0.18 µM | 6.3 µM
CC12CC3CC(C(=O)N[C@H]4[C@@H]5CNC[C@@H]54)(C1)CC(c1ccccc1)(C3)C2 (stereo partly drawn) [Example A102] | 0.12 µM | 0.21 µM | 29 µM
CC12CC3CC(C(=O)Nc4ccc(CN)cc4)(C1)CC(c1ccccc1)(C3)C2 (stereo not drawn) [Example A103] | 0.07 µM | 0.28 µM | 7.9 µM
CN(C(=O)C12CC3CC(C)(C1)CC(c1ccccc1)(C3)C2)C1CCNCC1 (stereo not drawn) [Example A104] | 0.06 µM | 0.22 µM | 66 µM
CC(C)C12CC3CC(C(=O)N[C@H]4CC[C@H](N)CC4)(CC(c4ccccc4)(C3)C1)C2 (stereo partly drawn) [Example A105] | 0.14 µM | 1.05 µM | 35 µM
C[C@H]1C[C@H](NC(=O)C23CC4CC(C)(C2)CC(c2ccccc2)(C4)C3)CCN1 (stereo partly drawn) [Example A107] | 0.046 µM | 0.3 µM | 14.7 µM
CC12CC3CC(C(=O)N[C@@H]4CCNC[C@H]4F)(C1)CC(c1ccccc1)(C3)C2 (stereo partly drawn) [Example A108] | 0.025 µM | 0.21 µM | 16.5 µM
CC12CC3CC(C(=O)NC4CCNCC4(F)F)(C1)CC(c1ccccc1)(C3)C2 (stereo not drawn) [Example A109] | 0.08 µM | 0.93 µM | 37 µM
C[C@H]1C[C@@H](NC(=O)C23CC4CC(C)(C2)CC(c2ccccc2)(C4)C3)CCN1 (stereo partly drawn) [Example A110] | 0.021 µM | 0.19 µM | 17.5 µM
CC12CC3CC(C(=O)NC4CCNCC4(C)C)(C1)CC(c1ccccc1)(C3)C2 (stereo not drawn) [Example A111] | 0.018 µM | 0.15 µM | 10.7 µM
CC1CNCCC1NC(=O)C12CC3CC(C)(C1)CC(c1ccccc1)(C3)C2 (stereo not drawn) [Example A112] | 0.037 µM | 0.26 µM | 7.2 µM
COC(=O)C12CC3CC(C(=O)N[C@H]4CC[C@H](N)CC4)(C1)CC(c1ccccc1)(C3)C2 (stereo partly drawn) [Example A115] | 0.98 µM | > 1 µM | 59 µM
CC12CC3CC(C(=O)Nc4ccncc4)(C1)CC(c1ccccc1)(C3)C2 (stereo not drawn) [Example A201, 3-methyl-5-phenyl-N-(pyridin-4-yl)adamantane-1-carboxamide] | 1.1 µM | > 1 µM | 16.4 µM
CC12CC3CC(C(=O)NCc4ncc[nH]4)(C1)CC(c1ccccc1)(C3)C2 (stereo not drawn) [Example A202, N-(1H-imidazol-2-ylmethyl)-3-methyl-5-phenyladamantane-1-carboxamide] | 0.59 µM | 0.96 µM | 41.5 µM
CC12CC3CC(C(=O)Nc4ccnc(N)c4)(C1)CC(c1ccccc1)(C3)C2 (stereo not drawn) [Example A203, N-(2-aminopyridin-4-yl)-3-methyl-5-phenyladamantane-1-carboxamide] | 0.91 µM | 1.02 µM | 3.9 µM
[O-][S+](NC1CCNCC1)C12CC3CC(CC(C3)C1)C2 (stereo not drawn) [Example A204, N-(piperidin-4-yl)adamantane-1-sulfinamide] | > 1 µM | > 1 µM | > 100 µM
O=S(=O)(NC1CCNCC1)C12CC3CC(CC(C3)C1)C2 [Example A205, N-(piperidin-4-yl)adamantane-1-sulfonamide] | > 1 µM | > 1 µM | 37 µM
CN1CCN(CC23CC4CC(C2)CC(c2ccccc2)(C4)C3)CC1 [Example C1] | 0.18 µM | 0.206 µM | 5.8 µM
CC12CC3CC(CNC4CCNCC4)(C1)CC(c1ccccc1)(C3)C2 (stereo not drawn) [Example C3, N-((3-methyl-5-phenyladamantan-1-yl)methyl)piperidin-4-amine] | 0.234 µM | 0.21 µM | 1.8 µM
CC1CCN(CCCOc2ccc(C34CC5CC(CC(C5)C3)C4)cc2)CC1 [Example C4, 1-(3-(4-(adamantan-1-yl)phenoxy)propyl)-4-methylpiperidine] | 0.14 µM | 0.4 µM | 7.2 µM
c1cc(C23CC4CC(CC(C4)C2)C3)ccc1OCCCN1CCCCC1 [Example C5, 1-(3-(4-(adamantan-1-yl)phenoxy)propyl)piperidine] | 0.14 µM | 0.55 µM | 14.3 µM
CN1CCN(CCCOc2ccc(C34CC5CC(CC(C5)C3)C4)cc2)CC1 [Example C6, 1-(3-(4-(adamantan-1-yl)phenoxy)propyl)-4-methylpiperazine] | 0.12 µM | 0.64 µM | 3.8 µM
CC1CCN(CC(O)CCOc2ccc(C34CC5CC(CC(C5)C3)C4)cc2)CC1 (stereo not drawn) [Example C7, 4-(4-(adamantan-1-yl)phenoxy)-1-(4-methylpiperidin-1-yl)butan-2-ol] | 0.47 µM | 0.77 µM | 4.1 µM
OC(CCOc1ccc(C23CC4CC(CC(C4)C2)C3)cc1)CN1CCCCC1 (stereo not drawn) [Example C8, 4-(4-(adamantan-1-yl)phenoxy)-1-(piperidin-1-yl)butan-2-ol] | 0.14 µM | 0.29 µM | 1.3 µM
CN1CCN(CC(O)CCOc2ccc(C34CC5CC(CC(C5)C3)C4)cc2)CC1 (stereo not drawn) [Example C9, 4-(4-(adamantan-1-yl)phenoxy)-1-(4-methylpiperazin-1-yl)butan-2-ol] | 0.66 µM | 0.99 µM | 8.3 µM
